Biological target: USP30 (Homo sapiens (Human), UniProt Q70CQ3)
Assay: USP30 Biochemical IC50 Assay
Conditions: fluorescence polarisation, TAMRA labelled peptide linked to ubiquitin as substrate
Method: Dilution plates were prepared at 21 times the final concentration (2100 μM for a final concentration of 100 μM) in 50% DMSO in a 96-well polypropylene V-bottom plate (Greiner #651201). A typical 8-point dilution series would be 100, 30, 10, 3, 1, 0.3, 0.1, 0.03 μM final. Reactions were performed in duplicate in black 384 well plates (small volume, Greiner 784076) in a final reaction volume of 21 μl. Either 1 μl of 50% DMSO or diluted compound was added to the plate. USP30 was diluted in reaction buffer (40 mM Tris, pH 7.5, 0.005% Tween 20, 0.5 mg/ml BSA, 5 mM beta-mercaptoethanol) to the equivalent of 0.05 μl/well and 10 μl of diluted USP30 was added to the compound. Enzyme and compound were incubated for 30 min at room temp. Reactions were initiated by the addition of 50 nM of TAMRA labelled peptide linked to ubiquitin via an iso-peptide bond as fluorescence polarisation substrate. Reactions were read immediately after addition of substrate and following a 2-hour incubation at room temperature. Readings were performed on a Pherastar Plus (BMG Labtech). λ Excitation 540 nm; λ Emission 590 nm.

Sequence of USP30 (Q70CQ3 whole entry): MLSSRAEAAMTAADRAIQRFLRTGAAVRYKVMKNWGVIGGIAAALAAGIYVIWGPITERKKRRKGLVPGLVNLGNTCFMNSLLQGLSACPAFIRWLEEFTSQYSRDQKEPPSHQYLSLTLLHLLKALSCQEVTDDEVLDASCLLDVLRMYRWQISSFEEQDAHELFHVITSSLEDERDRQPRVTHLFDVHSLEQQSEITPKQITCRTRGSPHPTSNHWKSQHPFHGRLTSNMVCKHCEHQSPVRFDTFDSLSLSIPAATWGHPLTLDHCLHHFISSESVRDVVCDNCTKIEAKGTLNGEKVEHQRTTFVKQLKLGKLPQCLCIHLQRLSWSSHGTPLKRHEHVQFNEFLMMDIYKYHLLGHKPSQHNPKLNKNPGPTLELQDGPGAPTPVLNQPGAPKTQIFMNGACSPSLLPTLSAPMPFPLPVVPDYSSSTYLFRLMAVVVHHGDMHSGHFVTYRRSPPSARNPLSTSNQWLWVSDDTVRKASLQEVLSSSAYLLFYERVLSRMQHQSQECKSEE

IC50 [nM] | Compound
10 to 100 | C[C@@H]1[C@H](CNC(=O)c2ncn(-c3cccc(C#N)c3)n2)CCN1C#N (mixture of isomers) [Example 4, N-(((2R,3R)-1-cyano-2-methylpyrrolidin-3-yl)methyl)-1-(3-cyanophenyl)-1H-1,2,4-triazole-3-carboxamide and N-(((2R,3S)-1-cyano-2-methylpyrrolidin-3-yl)methyl)-1-(3-cyanophenyl)-1H-1,2,4-triazole-3-carboxamide]
10 to 100 | CN(C[C@H]1CCN(C#N)C1)C(=O)c1ncn(-c2cccc(C#N)c2)n1 [Example 2, (S)-1-(3-cyanophenyl)-N-((1-cyanopyrrolidin-3-yl)methyl)-N-methyl-1H-1,2,4-triazole-3-carboxamide]
100 to 1000 | N#Cc1cccc(-n2cc(C(=O)NC[C@H]3CCN(C#N)C3)nn2)c1 [Example 5, (R)-1-(3-cyanophenyl)-N((1-cyanopyrrolidin-3-yl)methyl)-1H-1,2,3-triazole-4-carboxamide]
< 10 | N#CN1CC[C@H](CNC(=O)c2cnn(-c3cccc(Cl)c3)n2)C1 [Example 7, (R)-2-(3-chlorophenyl)-N-((1-cyanopyrrolidin-3-yl)methyl)-2H-1,2,3-triazole-4-carboxamide]
